Source: PubChem BioAssay (NCI)
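Growth conditions: 96-well plates. Treatment: test compound, 48 hours, 5 concentrations. Analysis: linear interpolation between bracketing concentrations; unreached endpoints set to highest concentration. TGI is the concentration that stops growth completely.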

What was measured:
Assay in all cases: inhibition of tumour cell growth, NCI panel, 48 h
A549 NSCLC = tested on: A549 NSCLC
OVCAR-4 ovarian = tested on: OVCAR-4 ovarian
ACHN renal = tested on: ACHN renal
SK-MEL-2 melanoma = tested on: SK-MEL-2 melanoma
786-0 renal = tested on: 786-0 renal
UACC-257 melanoma = tested on: UACC-257 melanoma
MCF7 breast = tested on: MCF7 breast
MDA-MB-231 breast = tested on: MDA-MB-231 breast
HCC-2998 colon = tested on: HCC-2998 colon
OVCAR-3 ovarian = tested on: OVCAR-3 ovarian
NCI-H226 lung = tested on: NCI-H226 lung

SMILES	TGI (A549 NSCLC) [µM]	TGI (OVCAR-4 ovarian) [µM]	TGI (ACHN renal) [µM]	TGI (SK-MEL-2 melanoma) [µM]	TGI (786-0 renal) [µM]	TGI (UACC-257 melanoma) [µM]	TGI (MCF7 breast) [µM]	TGI (MDA-MB-231 breast) [µM]	TGI (HCC-2998 colon) [µM]	TGI (OVCAR-3 ovarian) [µM]	TGI (NCI-H226 lung) [µM]
COCN1C(=O)[C@@H]2CCCN2C(=O)c2cc(N)ccc21	> 100	> 100	> 100	> 100	> 100	> 100	> 100	> 100	–	–	–
CC(=O)OCC1OC(n2c(-c3ccc(C)cc3)cc(-c3ccccc3)c(C#N)c2=S)C(OC(C)=O)C(OC(C)=O)C1OC(C)=O (stereo unspecified)	> 100	> 100	> 100	–	> 100	–	> 100	> 100	> 100	> 100	> 100
Cc1cn(CC2=NCC(C)N2)c(=O)[nH]c1=O (stereo unspecified)	> 100	–	> 100	> 100	> 100	> 100	> 100	> 100	> 100	–	> 100
O=C1c2ccccc2C(=O)N1CC(O)COc1cccc2ccccc12 (stereo unspecified)	> 100	–	> 100	–	–	> 100	> 100	> 100	> 100	> 100	–
CCC(=O)Nc1ccc(N2C(=O)C(Cl)C2c2ccc(SC)cc2)cc1 (stereo unspecified)	> 100	> 100	> 100	> 100	> 100	> 100	> 100	–	96.9	> 100	98.1
Cc1ccc(S(=O)(=O)N2CCCSCC2)cc1	> 100	> 100	> 100	–	–	> 100	> 100	> 100	> 100	–	> 100
CN(C)c1nc(Cl)c2c(-c3ccccc3)c(-c3ccccc3)oc2n1	> 100	> 100	> 100	–	> 100	> 100	> 100	> 100	> 100	–	> 100
CC1=C(C)Cc2c(O)ccc(O)c2C1	41.9	–	31.2	–	–	32.2	51.3	44.1	–	43.2	42.1
NC(=S)N/N=C\c1nccc2ccccc12	> 100	1.2	0.317	> 100	–	> 58.6	11.9	35.7	> 68.4	> 100	0.54
COc1cc(CNNC(N)=S)cc(OC)c1OC	> 100	–	> 100	–	> 100	> 100	> 100	> 100	> 100	> 100	> 100
CC(C)(C)OC(=O)N1C(c2cccnc2)=CC[C@H]2C3CC=C(c4cccnc4)[C@@]3(C)CC[C@@H]21 (stereo partly specified)	12.2	19.3	11.3	8.39	16.4	10.6	11.1	–	–	14.2	15.1
CCOC(=O)NC(Nc1ccc(C(=O)OCC)cc1)(C(F)(F)F)C(F)(F)F	> 100	> 100	> 100	–	> 100	–	> 100	> 100	> 100	> 100	> 100
COc1cc(/C=c2\sc3n(c2=O)C(c2ccc(Cl)cc2)C2=C(CCCC2C)N=3)cc(OC)c1OC (stereo unspecified)	> 100	–	> 100	> 100	> 100	> 100	> 100	> 100	–	–	–
COc1ccc(SCc2cc(OCc3ccccc3)c(OCc3ccccc3)c(OCc3ccccc3)c2)cc1	3.71	3.25	3.1	–	2.89	3.09	–	2.7	2.85	3.04	3.73
Oc1ccc2c(c1)-c1c(c3ccccc3n1CCN1CCOCC1)CC2	–	–	53.3	69.4	> 100	84.6	> 100	> 100	–	> 100	81.2
CCOC(=O)c1ccc(NCC#CCN2CCCCC2)cc1	> 100	> 100	> 100	> 100	> 100	–	> 100	> 100	–	> 100	> 100
O=C(NNC(=S)NC1CCCCC1)c1csc(NC(=S)NC2CCCCC2)n1	23.3	–	15.3	33.7	19.9	11.8	> 100	45.1	14.5	16.9	> 100
O=c1/c(=C/c2ccc(-c3ccc(Cl)cc3Cl)o2)sc2n1[C@@H](c1ccc(Cl)cc1)C=C(c1cc(F)c(Cl)cc1Cl)N=2	> 100	> 100	> 100	> 100	> 100	> 100	> 100	59.2	56.2	–	> 100
BrC(c1cccc2ccccc12)c1cccc2ccccc12	> 100	36.1	52.3	30.1	28.2	53.3	–	28	–	24.2	33.5
COc1ccc(-c2cc3[nH]nc(N)c3c(=O)o2)cc1	> 100	> 100	> 100	> 100	–	> 100	–	–	> 100	–	–
CC(=O)Nc1ccc(C2SCc3nc4ccccc4n32)cc1 (stereo unspecified)	> 100	> 100	> 100	> 100	> 100	> 100	> 100	> 100	> 100	> 100	–
COc1ccccc1C(=O)c1c(NCc2ccccc2)c(=O)c1=O	–	> 100	> 100	> 100	> 100	> 100	–	> 100	> 100	> 100	> 100
